ChEMBL document CHEMBL1649268, “Comparative in vitro activity profile of oritavancin against recent gram-positive clinical isolates” (2009)
≈ marks a conversion by molar mass, not a printed value.

What was measured:
Assay type in all cases: functional
Enterococcus faecium [1] = assay: Antimicrobial activity against Enterococcus faecium expressing VanB gene clinical isolates assessed as percent susceptible isolates by broth microdilution method
Enterococcus faecium [2] = assay: Antimicrobial activity against Enterococcus faecium expressing VanA gene clinical isolates assessed as percent susceptible isolates by broth microdilution method
Enterococcus faecium [3] = assay: Antimicrobial activity against vancomycin-nonsusceptible Enterococcus faecium clinical isolates assessed as percent susceptible isolates by broth microdilution method
Enterococcus faecium [4] = assay: Antimicrobial activity against vancomycin-susceptible Enterococcus faecium clinical isolates assessed as percent susceptible isolates by broth microdilution method
Enterococcus faecium [5] = assay: Antimicrobial activity against Enterococcus faecium clinical isolates assessed as percent susceptible isolates by broth microdilution method
Enterococcus faecalis [6] = assay: Antimicrobial activity against Enterococcus faecalis expressing VanB gene clinical isolates assessed as percent susceptible isolates by broth microdilution method
Enterococcus faecalis [7] = assay: Antimicrobial activity against Enterococcus faecalis expressing VanA gene clinical isolates assessed as percent susceptible isolates by broth microdilution method
Enterococcus faecalis [8] = assay: Antimicrobial activity against vancomycin-nonsusceptible Enterococcus faecalis clinical isolates assessed as percent susceptible isolates by broth microdilution method
Enterococcus faecalis [9] = assay: Antimicrobial activity against vancomycin-susceptible Enterococcus faecalis clinical isolates assessed as percent susceptible isolates by broth microdilution method
Enterococcus faecalis [10] = assay: Antimicrobial activity against Enterococcus faecalis clinical isolates assessed as percent susceptible isolates by broth microdilution method
[11] = tested on: Staphylococcus haemolyticus; assay: Antimicrobial activity against oxacillin-resistant Staphylococcus haemolyticus clinical isolates assessed as percent susceptible isolates by broth microdilution method
[12] = tested on: Staphylococcus haemolyticus; assay: Antimicrobial activity against oxacillin-susceptible Staphylococcus haemolyticus clinical isolates assessed as percent susceptible isolates by broth microdilution method
[13] = tested on: Staphylococcus haemolyticus; assay: Antimicrobial activity against Staphylococcus haemolyticus clinical isolates assessed as percent susceptible isolates by broth microdilution method
[14] = tested on: Staphylococcus epidermidis; assay: Antimicrobial activity against oxacillin-susceptible Staphylococcus epidermidis clinical isolates assessed as percent susceptible isolates by broth microdilution method
[15] = tested on: Staphylococcus epidermidis; assay: Antimicrobial activity against Staphylococcus epidermidis clinical isolates assessed as percent susceptible isolates by broth microdilution method
Staphylococcus aureus [16] = assay: Antimicrobial activity against oxacillin-susceptible Staphylococcus aureus clinical isolates assessed as percent susceptible isolates by broth microdilution method
Staphylococcus aureus [17] = assay: Antimicrobial activity against Staphylococcus aureus clinical isolates assessed as percent susceptible isolates by broth microdilution method
Enterococcus faecium [18] = assay: Antimicrobial activity against Enterococcus faecium expressing VanB gene clinical isolates assessed as resistant isolates by broth microdilution method
Enterococcus faecium [19] = assay: Antimicrobial activity against Enterococcus faecium expressing VanA gene clinical isolates assessed as resistant isolates by broth microdilution method
Enterococcus faecium [20] = assay: Antimicrobial activity against vancomycin-nonsusceptible Enterococcus faecium clinical isolates assessed as resistant isolates by broth microdilution method
Enterococcus faecium [21] = assay: Antimicrobial activity against vancomycin-susceptible Enterococcus faecium clinical isolates assessed as resistant isolates by broth microdilution method
Enterococcus faecium [22] = assay: Antimicrobial activity against Enterococcus faecium clinical isolates assessed as resistant isolates by broth microdilution method
Enterococcus faecalis [23] = assay: Antimicrobial activity against Enterococcus faecalis expressing VanB gene clinical isolates assessed as resistant isolates by broth microdilution method
Enterococcus faecalis [24] = assay: Antimicrobial activity against Enterococcus faecalis expressing VanA gene clinical isolates assessed as resistant isolates by broth microdilution method
Enterococcus faecalis [25] = assay: Antimicrobial activity against vancomycin-nonsusceptible Enterococcus faecalis clinical isolates assessed as resistant isolates by broth microdilution method
Enterococcus faecalis [26] = assay: Antimicrobial activity against vancomycin-susceptible Enterococcus faecalis clinical isolates assessed as resistant isolates by broth microdilution method
Enterococcus faecalis [27] = assay: Antimicrobial activity against Enterococcus faecalis clinical isolates assessed as resistant isolates by broth microdilution method
Enterococcus faecium [28] = assay: Antimicrobial activity against Enterococcus faecium expressing VanB gene clinical isolates by broth microdilution method
Enterococcus faecium [29] = assay: Antimicrobial activity against Enterococcus faecium expressing VanA gene clinical isolates by broth microdilution method
Enterococcus faecium [30] = assay: Antimicrobial activity against vancomycin-nonsusceptible Enterococcus faecium clinical isolates by broth microdilution method
Enterococcus faecium [31] = assay: Antimicrobial activity against vancomycin-susceptible Enterococcus faecium clinical isolates by broth microdilution method
Enterococcus faecium [32] = assay: Antimicrobial activity against Enterococcus faecium clinical isolates by broth microdilution method
Enterococcus faecalis [33] = assay: Antimicrobial activity against Enterococcus faecalis expressing VanB gene clinical isolates by broth microdilution method
Enterococcus faecalis [34] = assay: Antimicrobial activity against Enterococcus faecalis expressing VanA gene clinical isolates by broth microdilution method
Enterococcus faecalis [35] = assay: Antimicrobial activity against vancomycin-nonsusceptible Enterococcus faecalis clinical isolates by broth microdilution method
Enterococcus faecalis [36] = assay: Antimicrobial activity against vancomycin-susceptible Enterococcus faecalis clinical isolates by broth microdilution method
Enterococcus faecalis [37] = assay: Antimicrobial activity against Enterococcus faecalis clinical isolates by broth microdilution method
[38] = tested on: Staphylococcus haemolyticus; assay: Antimicrobial activity against oxacillin-resistant Staphylococcus haemolyticus clinical isolates by broth microdilution method
[39] = tested on: Staphylococcus haemolyticus; assay: Antimicrobial activity against oxacillin-susceptible Staphylococcus haemolyticus clinical isolates by broth microdilution method
[40] = tested on: Staphylococcus haemolyticus; assay: Antimicrobial activity against Staphylococcus haemolyticus clinical isolates by broth microdilution method
[41] = tested on: Staphylococcus epidermidis; assay: Antimicrobial activity against oxacillin-resistant Staphylococcus epidermidis clinical isolates by broth microdilution method
[42] = tested on: Staphylococcus epidermidis; assay: Antimicrobial activity against oxacillin-susceptible Staphylococcus epidermidis clinical isolates by broth microdilution method
[43] = tested on: Staphylococcus epidermidis; assay: Antimicrobial activity against Staphylococcus epidermidis clinical isolates by broth microdilution method
Staphylococcus aureus [44] = assay: Antimicrobial activity against oxacillin-resistant Staphylococcus aureus clinical isolates by broth microdilution method
Staphylococcus aureus [45] = assay: Antimicrobial activity against oxacillin-susceptible Staphylococcus aureus clinical isolates by broth microdilution method
Staphylococcus aureus [46] = assay: Antimicrobial activity against Staphylococcus aureus clinical isolates by broth microdilution method

Q: For `CC(=O)NC[C@H]1CN(c2ccc(N3CCOCC3)c(F)c2)C(=O)O1` [LINEZOLID], which Activity (Enterococcus faecium [1]) is on record?
A: 93.1%

Q: What about the Activity (Enterococcus faecium [2]) of the same compound?
A: 99.5%

Q: What about the Activity (Enterococcus faecium [3]) of the same compound?
A: 99.1%

Q: And the Activity (Enterococcus faecium [4])?
A: 99.4%

Q: And the Activity (Enterococcus faecium [5])?
A: 99.3%

Q: And the Activity (Enterococcus faecalis [6])?
A: 100%

Q: And the Activity (Enterococcus faecalis [7])?
A: 98.5%

Q: What about the Activity (Enterococcus faecalis [8]) of the same compound?
A: 98.9%

Q: What about the Activity (Enterococcus faecalis [9]) of the same compound?
A: 99.9%

Q: What about the Activity (Enterococcus faecalis [10]) of the same compound?
A: 99.8%

Q: And the Activity [11]?
A: 99%

Q: What about the Activity [12] of the same compound?
A: 100%

Q: What about the Activity [13] of the same compound?
A: 99.3%

Q: What about the Activity [14] of the same compound?
A: 99.7%

Q: What about the Activity [15] of the same compound?
A: 99.4%

Q: What about the Activity (Staphylococcus aureus [16]) of the same compound?
A: 100%

Q: And the Activity (Staphylococcus aureus [17])?
A: 100%

Q: And the Activity (Enterococcus faecium [18])?
A: 3.4%

Q: What about the Activity (Enterococcus faecium [19]) of the same compound?
A: 0.5%

Q: What about the Activity (Enterococcus faecium [20]) of the same compound?
A: 0.6%

Q: And the Activity (Enterococcus faecium [21])?
A: 0%

Q: What about the Activity (Enterococcus faecium [22]) of the same compound?
A: 0.4%

Q: What about the Activity (Enterococcus faecalis [23]) of the same compound?
A: 0%

Q: What about the Activity (Enterococcus faecalis [24]) of the same compound?
A: 1.5%

Q: What about the Activity (Enterococcus faecalis [25]) of the same compound?
A: 1.1%

Q: And the Activity (Enterococcus faecalis [26])?
A: 0.1%

Q: What about the Activity (Enterococcus faecalis [27]) of the same compound?
A: 0.2%

Q: And the MIC90 (Enterococcus faecium [28])?
A: 2 µg/mL (≈ 5.93 µM)

Q: What about the MIC90 (Enterococcus faecium [29]) of the same compound?
A: 2 µg/mL (≈ 5.93 µM)

Q: What about the MIC90 (Enterococcus faecium [30]) of the same compound?
A: 2 µg/mL (≈ 5.93 µM)

Q: What about the MIC90 (Enterococcus faecium [31]) of the same compound?
A: 2 µg/mL (≈ 5.93 µM)

Q: What about the MIC90 (Enterococcus faecium [32]) of the same compound?
A: 2 µg/mL (≈ 5.93 µM)

Q: What about the MIC90 (Enterococcus faecalis [33]) of the same compound?
A: 2 µg/mL (≈ 5.93 µM)

Q: What about the MIC90 (Enterococcus faecalis [34]) of the same compound?
A: 2 µg/mL (≈ 5.93 µM)

Q: And the MIC90 (Enterococcus faecalis [35])?
A: 2 µg/mL (≈ 5.93 µM)

Q: What about the MIC90 (Enterococcus faecalis [36]) of the same compound?
A: 2 µg/mL (≈ 5.93 µM)

Q: What about the MIC90 (Enterococcus faecalis [37]) of the same compound?
A: 2 µg/mL (≈ 5.93 µM)

Q: And the MIC90 [38]?
A: 1 µg/mL (≈ 2.96 µM)

Q: What about the MIC90 [39] of the same compound?
A: 1 µg/mL (≈ 2.96 µM)

Q: And the MIC90 [40]?
A: 1 µg/mL (≈ 2.96 µM)

Q: And the MIC90 [41]?
A: 1 µg/mL (≈ 2.96 µM)

Q: What about the MIC90 [42] of the same compound?
A: 1 µg/mL (≈ 2.96 µM)

Q: And the MIC90 [43]?
A: 1 µg/mL (≈ 2.96 µM)

Q: And the MIC90 (Staphylococcus aureus [44])?
A: 2 µg/mL (≈ 5.93 µM)

Q: What about the MIC90 (Staphylococcus aureus [45]) of the same compound?
A: 2 µg/mL (≈ 5.93 µM)

Q: What about the MIC90 (Staphylococcus aureus [46]) of the same compound?
A: 2 µg/mL (≈ 5.93 µM)

Q: Which Activity (Enterococcus faecium [1]) does the source give for `CN[C@@H]1[C@H](O[C@H]2[C@H](O[C@H]3[C@H](O)[C@@H](O)[C@H](N=C(N)N)[C@@H](O)[C@@H]3N=C(N)N)O[C@@H](C)[C@]2(O)C=O)O[C@@H](CO)[C@H](O)[C@H]1O` [STREPTOMYCIN] here?
A: 34.5%

Q: What about the Activity (Enterococcus faecium [2]) of the same compound?
A: 36.1%

Q: And the Activity (Enterococcus faecium [3])?
A: 36.5%

Q: What about the Activity (Enterococcus faecium [4]) of the same compound?
A: 56%

Q: What about the Activity (Enterococcus faecium [5]) of the same compound?
A: 44.8%

Q: And the Activity (Enterococcus faecalis [6])?
A: 41.2%

Q: And the Activity (Enterococcus faecalis [7])?
A: 49.2%

Q: What about the Activity (Enterococcus faecalis [8]) of the same compound?
A: 48.3%

Q: What about the Activity (Enterococcus faecalis [9]) of the same compound?
A: 71.3%

Q: And the Activity (Enterococcus faecalis [10])?
A: 70.1%

Q: And the Activity (Enterococcus faecium [18])?
A: 65.5%

Q: And the Activity (Enterococcus faecium [19])?
A: 63.9%

Q: And the Activity (Enterococcus faecium [20])?
A: 63.5%

Q: And the Activity (Enterococcus faecium [21])?
A: 44%

Q: What about the Activity (Enterococcus faecium [22]) of the same compound?
A: 55.2%

Q: And the Activity (Enterococcus faecalis [23])?
A: 58.8%

Q: What about the Activity (Enterococcus faecalis [24]) of the same compound?
A: 50.8%

Q: And the Activity (Enterococcus faecalis [25])?
A: 51.7%

Q: What about the Activity (Enterococcus faecalis [26]) of the same compound?
A: 28.7%

Q: And the Activity (Enterococcus faecalis [27])?
A: 29.9%

Q: And the MIC (Enterococcus faecium [28])?
A: ≥ 1000 µg/mL

Q: And the MIC90 (Enterococcus faecium [28])?
A: > 1000 µg/mL

Q: And the MIC (Enterococcus faecium [29])?
A: ≥ 1000 µg/mL

Q: And the MIC90 (Enterococcus faecium [29])?
A: > 1000 µg/mL

Q: What about the MIC (Enterococcus faecium [30]) of the same compound?
A: ≥ 1000 µg/mL

Q: And the MIC90 (Enterococcus faecium [30])?
A: > 1000 µg/mL

Q: And the MIC (Enterococcus faecium [31])?
A: ≥ 1000 µg/mL

Q: And the MIC90 (Enterococcus faecium [31])?
A: > 1000 µg/mL

Q: And the MIC (Enterococcus faecium [32])?
A: ≥ 1000 µg/mL

Q: What about the MIC90 (Enterococcus faecium [32]) of the same compound?
A: > 1000 µg/mL

Q: What about the MIC (Enterococcus faecalis [33]) of the same compound?
A: ≥ 1000 µg/mL

Q: And the MIC90 (Enterococcus faecalis [33])?
A: > 1000 µg/mL

Q: And the MIC (Enterococcus faecalis [34])?
A: ≥ 1000 µg/mL

Q: What about the MIC90 (Enterococcus faecalis [34]) of the same compound?
A: > 1000 µg/mL

Q: And the MIC (Enterococcus faecalis [35])?
A: ≥ 1000 µg/mL

Q: What about the MIC90 (Enterococcus faecalis [35]) of the same compound?
A: > 1000 µg/mL

Q: What about the MIC (Enterococcus faecalis [36]) of the same compound?
A: ≥ 1000 µg/mL

Q: What about the MIC90 (Enterococcus faecalis [36]) of the same compound?
A: > 1000 µg/mL

Q: And the MIC (Enterococcus faecalis [37])?
A: ≥ 1000 µg/mL

Q: What about the MIC90 (Enterococcus faecalis [37]) of the same compound?
A: > 1000 µg/mL
